According to patent US11613527B2, “Enzyme inhibitors” (KalVista Pharmaceuticals Limited, priority 2019, dated 2023):

Columns and labels:
Assay type in all cases: biochemical
Human FXIa = Human FXIa (Homo sapiens (Human), UniProt P03951); test: Determination of the % inhibition for FXIa (fluorogenic substrate Z-Gly-Pro-Arg-AFC; 40 μM or IC50)
Description: Selected compounds were further screened for inhibitory activity against the related enzyme FXIa. The ability of the compounds of formula (I) to inhibit FXIa may be determined using the following biological assay:
Determination of the % Inhibition for FXIa
(§1) FXIa inhibitory activity in vitro was determined using standard published methods (see e.g. Johansen et al., Int. J. Tiss. Reac. 1986, 8, 185; Shori et al., Biochem. Pharmacol., 1992, 43, 1209; Sturzebecher et al., Biol. Chem. Hoppe-Seyler, 1992, 373, 1025). Human FXIa (Enzyme Research Laboratories) was incubated at 25° C. with the fluorogenic substrate Z-Gly-Pro-Arg-AFC and 40 μM of the test compound (or alternatively at various concentrations of the test compound in order to determine IC50). Residual enzyme activity (initial rate of reaction) was determined by measuring the change in optical absorbance at 410 nm and the IC50 value for the test compound was determined.

Human KLK1 = Human KLK1 (Homo sapiens (Human), UniProt P06870); test: Determination of the IC50 for KLK1 (fluorogenic substrate H-DVal-Leu-Arg-AFC)
Description: Selected compounds were further screened for inhibitory activity against the related enzyme KLK1. The ability of the compounds of formula (I) to inhibit KLK1 may be determined using the following biological assay:
Determination of the IC50 for KLK1
as §1, with “KLK1” for “FXIa”, “KLK1 (Callbiochem)” for “FXIa (Enzyme Research Laboratories)”, “H-DVal-Leu-Arg-AFC” for “Z-Gly-Pro-Arg-AFC”, “and” for “and 40 μM of the test compound (or alternatively at”, “compound.” for “compound in order to determine IC50).”

Human plasma kallikrein = Human plasma kallikrein (Homo sapiens (Human), UniProt P03952); test: Determination of the IC50 for plasma kallikrein (fluorogenic substrate H-DPro-Phe-Arg-AFC); conditions: class symbols A-D, read-out: IC50 (human PKal)
Description: The ability of the compounds of formula (I) to inhibit plasma kallikrein may be determined using the following biological assay:
Determination of the IC50 for Plasma Kallikrein
as §1, with “Plasma kallikrein” for “FXIa”, “plasma kallikrein (Protogen)” for “FXIa (Enzyme Research Laboratories)”, “H-DPro-Phe-Arg-AFC” for “Z-Gly-Pro-Arg-AFC”, “and” for “and 40 μM of the test compound (or alternatively at”, “compound.” for “compound in order to determine IC50).”

Chain of Human plasma kallikrein (P03952 391-638): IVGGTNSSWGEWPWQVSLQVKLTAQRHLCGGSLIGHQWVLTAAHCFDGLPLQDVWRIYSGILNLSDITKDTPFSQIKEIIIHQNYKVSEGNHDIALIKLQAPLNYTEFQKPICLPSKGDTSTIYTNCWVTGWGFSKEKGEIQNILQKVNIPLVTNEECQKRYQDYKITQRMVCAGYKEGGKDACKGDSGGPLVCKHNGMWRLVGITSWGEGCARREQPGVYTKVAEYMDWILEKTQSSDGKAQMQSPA
Chain of Human plasma kallikrein (P03952 20-390 partner): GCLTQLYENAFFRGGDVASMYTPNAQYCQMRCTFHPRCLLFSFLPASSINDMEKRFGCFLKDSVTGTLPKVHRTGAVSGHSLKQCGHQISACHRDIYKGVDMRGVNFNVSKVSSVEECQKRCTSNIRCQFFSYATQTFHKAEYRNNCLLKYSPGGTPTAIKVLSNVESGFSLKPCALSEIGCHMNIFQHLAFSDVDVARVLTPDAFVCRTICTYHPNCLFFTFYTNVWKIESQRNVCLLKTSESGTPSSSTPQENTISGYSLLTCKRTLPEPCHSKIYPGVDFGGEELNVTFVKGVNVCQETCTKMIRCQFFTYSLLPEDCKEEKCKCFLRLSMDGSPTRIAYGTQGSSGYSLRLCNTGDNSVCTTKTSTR
Chain of Human FXIa (P03951 388-625): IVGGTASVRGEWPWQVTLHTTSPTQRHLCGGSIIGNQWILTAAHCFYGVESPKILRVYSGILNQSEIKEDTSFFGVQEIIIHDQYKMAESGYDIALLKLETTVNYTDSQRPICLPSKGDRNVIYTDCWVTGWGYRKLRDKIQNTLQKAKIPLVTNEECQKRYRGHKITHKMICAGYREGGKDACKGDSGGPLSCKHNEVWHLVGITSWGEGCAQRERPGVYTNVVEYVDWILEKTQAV
Chain of Human FXIa (P03951 19-387 partner): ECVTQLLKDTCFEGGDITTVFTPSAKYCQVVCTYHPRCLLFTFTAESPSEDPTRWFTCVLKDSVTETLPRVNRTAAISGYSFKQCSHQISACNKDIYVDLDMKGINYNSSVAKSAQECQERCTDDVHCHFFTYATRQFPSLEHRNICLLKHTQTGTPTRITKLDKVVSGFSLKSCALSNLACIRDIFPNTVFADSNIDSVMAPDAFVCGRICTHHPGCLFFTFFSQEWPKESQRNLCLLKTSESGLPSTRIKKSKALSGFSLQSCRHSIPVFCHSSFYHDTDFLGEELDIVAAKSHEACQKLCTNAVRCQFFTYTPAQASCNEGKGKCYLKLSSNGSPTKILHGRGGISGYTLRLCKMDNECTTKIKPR
Chain of Human KLK1 (P06870 25-262): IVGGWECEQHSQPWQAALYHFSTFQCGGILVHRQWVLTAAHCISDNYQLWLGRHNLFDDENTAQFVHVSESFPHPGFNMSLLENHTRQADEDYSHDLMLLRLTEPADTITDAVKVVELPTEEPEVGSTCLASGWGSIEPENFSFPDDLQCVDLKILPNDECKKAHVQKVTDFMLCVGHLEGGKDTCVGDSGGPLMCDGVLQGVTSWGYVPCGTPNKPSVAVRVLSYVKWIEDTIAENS

Row | Compound | IC50 (Human FXIa) | IC50 (Human KLK1) | IC50 (Human plasma kallikrein)
1 | COCc1nn(Cc2cc(F)cc3c2CCN(C)C3)cc1C(=O)NCc1c(-n2cc(C)nn2)ccc(OC)c1F [Example 103, 1-[(7-fluoro-2-methyl-3,4-dihydro-1H-isoquinolin-5-yl)methyl]-N-{[2-fluoro-3-methoxy-6-(4-methyl-1,2,3-triazol-1-yl)phenyl]methyl}-3-(methoxymethyl)pyrazole-4-carboxamide] | > 40 µM | > 40 µM | 0.03 to 0.1 µM
2 | COCc1nn(Cc2ccc3c(c2Cl)CCN(C)C3)cc1C(=O)NCc1c(-n2cc(C)nn2)ccc(OC)c1F [Example 104, 1-[(5-chloro-2-methyl-3,4-dihydro-1H-isoquinolin-6-yl)methyl]-N-{[2-fluoro-3-methoxy-6-(4-methyl-1,2,3-triazol-1-yl)phenyl]methyl}-3-(methoxymethyl)pyrazole-4-carboxamide] | > 40 µM | > 40 µM | 0.03 to 0.1 µM
3 | COCc1nn(Cc2ccc3c(c2)C(F)(F)CN(C)C3)cc1C(=O)NCc1c(-n2cc(C)nn2)ccc(OC)c1F [Example 105, 1-[(4,4-difluoro-2-methyl-1,3-dihydroisoquinolin-6-yl)methyl]-N-{[2-fluoro-3-methoxy-6-(4-methyl-1,2,3-triazol-1-yl)phenyl]methyl}-3-(methoxymethyl)pyrazole-4-carboxamide] | 30 µM | > 40 µM | < 0.01 µM
4 | COCc1nn(Cc2ccc3c(c2)CN(C)CC3(F)F)cc1C(=O)NCc1c(-n2cc(C)nn2)ccc(OC)c1F [Example 106, 1-[(4,4-difluoro-2-methyl-1,3-dihydroisoquinolin-7-yl)methyl]-N-{[2-fluoro-3-methoxy-6-(4-methyl-1,2,3-triazol-1-yl)phenyl]methyl}-3-(methoxymethyl)pyrazole-4-carboxamide] | 23.1 µM | > 40 µM | < 0.01 µM
5 | COCc1nn(Cc2ccc3c(c2F)CN(C)CC3)cc1C(=O)NCc1c(-n2cc(C)nn2)ccc(OC)c1F [Example 107, 1-[(8-fluoro-2-methyl-3,4-dihydro-1H-isoquinolin-7-yl)methyl]-N-{[2-fluoro-3-methoxy-6-(4-methyl-1,2,3-triazol-1-yl)phenyl]methyl}-3-(methoxymethyl)pyrazole-4-carboxamide] | > 40 µM | > 40 µM | < 0.01 µM
6 | COCc1nn(Cc2ccc3c(c2)CN(C)CCO3)cc1C(=O)NCc1c(-n2cc(C)nn2)ccc(OC)c1F [Example 108, N-{[2-fluoro-3-methoxy-6-(4-methyl-1,2,3-triazol-1-yl)phenyl]methyl}-3-(methoxymethyl)-1-[(4-methyl-3,5-dihydro-2H-1,4-benzoxazepin-7-yl)methyl]pyrazole-4-carboxamide] | > 40 µM | > 40 µM | 0.1 to 1 µM
7 | COCc1nn(Cc2nc3c(s2)CN(C)CC3)cc1C(=O)NCc1c(-n2cc(C)nn2)ccc(OC)c1F [Example 109, N-{[2-fluoro-3-methoxy-6-(4-methyl-1,2,3-triazol-1-yl)phenyl]methyl}-3-(methoxymethyl)-1-({5-methyl-4H,6H,7H-[1,3]thiazolo[5,4-c]pyridin-2-yl}methyl)pyrazole-4-carboxamide] | > 40 µM | > 40 µM | 0.1 to 1 µM
8 | COCc1nn(Cc2ccc3c(c2)CNCCO3)cc1C(=O)NCc1c(-n2cc(C)nn2)ccc(OC)c1F [Example 110, N-{[2-fluoro-3-methoxy-6-(4-methyl-1,2,3-triazol-1-yl)phenyl]methyl}-3-(methoxymethyl)-1-(2,3,4,5-tetrahydro-1,4-benzoxazepin-7-ylmethyl)pyrazole-4-carboxamide] | > 40 µM | > 40 µM | 0.1 to 1 µM
9 | COCc1nn(Cc2ccc3c(c2F)CCN(C)C3)cc1C(=O)NCc1c(-n2cc(C)nn2)ccc(OC)c1F [Example 114, 1-[(5-fluoro-2-methyl-3,4-dihydro-1H-isoquinolin-6-yl)methyl]-N-{[2-fluoro-3-methoxy-6-(4-methyl-1,2,3-triazol-1-yl)phenyl]methyl}-3-(methoxymethyl)pyrazole-4-carboxamide] | > 40 µM | > 40 µM | 0.01 to 0.03 µM
10 | COCc1nn(Cc2cnc3c(c2)CCN(CC(F)F)C3)cc1C(=O)NCc1c(-n2cc(C)nn2)ccc(OC)c1F [Example 115, 1-{[7-(2,2-difluoroethyl)-6,8-dihydro-5H-1,7-naphthyridin-3-yl]methyl}-N-{[2-fluoro-3-methoxy-6-(4-methyl-1,2,3-triazol-1-yl)phenyl]methyl}-3-(methoxymethyl)pyrazole-4-carboxamide] | > 4 µM | > 4 µM | 0.01 to 0.03 µM

Now from value to molecule:

Row | IC50 (Human FXIa) | IC50 (Human KLK1) | IC50 (Human plasma kallikrein) | Compound
11 | > 4 µM | > 4 µM | < 0.01 µM | COCc1nn(Cc2cc(F)c3c(c2)CCN(C)C3)cc1C(=O)NCc1c(-n2cc(C)nn2)ccc(OC)c1F [Example 116, 1-[(8-fluoro-2-methyl-3,4-dihydro-1H-isoquinolin-6-yl)methyl]-N-{[2-fluoro-3-methoxy-6-(4-methyl-1,2,3-triazol-1-yl)phenyl]methyl}-3-(methoxymethyl)pyrazole-4-carboxamide]
12 | > 40 µM | > 40 µM | < 0.01 µM | COCc1nn(Cc2ccc3c(c2)C2CCCN2CC3)cc1C(=O)NCc1c(-n2cc(C)nn2)ccc(OC)c1F (stereo not drawn) [Example 120, 1-{1H,2H,3H,5H,6H,10bH-pyrrolo[2,1-a]isoquinolin-9-ylmethyl}-N-{[2-fluoro-3-methoxy-6-(4-methyl-1,2,3-triazol-1-yl)phenyl]methyl}-3-(methoxymethyl)pyrazole-4-carboxamide]
13 | > 40 µM | > 40 µM | < 0.01 µM | COCc1nn(Cc2ccc3c(c2)CCN(C)CC3)cc1C(=O)NCc1c(-n2cc(C)nn2)ccc(OC)c1F [Example 121, N-{[2-fluoro-3-methoxy-6-(4-methyl-1,2,3-triazol-1-yl)phenyl]methyl}-3-(methoxymethyl)-1-[(3-methyl-1,2,4,5-tetrahydro-3-benzazepin-7-yl)methyl]pyrazole-4-carboxamide]
14 | > 40 µM | > 40 µM | 0.03 to 0.1 µM | COCc1nn(Cc2ccc3c(c2)C2CCC3N2C(C)C)cc1C(=O)NCc1c(-n2cc(C)nn2)ccc(OC)c1F (stereo not drawn) [Example 123, N-{[2-fluoro-3-methoxy-6-(4-methyl-1,2,3-triazol-1-yl)phenyl]methyl}-1-({11-isopropyl-11-azatricyclo[6.2.1.0^{2,7}]undeca-2(7),3,5-trien-4-yl}methyl)-3-(methoxymethyl)pyrazole-4-carboxamide]
15 | > 40 µM | > 40 µM | 0.03 to 0.1 µM | COCc1nn(Cc2ccc3c(c2)C(C)(C)N(C)C3)cc1C(=O)NCc1c(-n2cc(C)nn2)ccc(OC)c1F [Example 124, N-{[2-fluoro-3-methoxy-6-(4-methyl-1,2,3-triazol-1-yl)phenyl]methyl}-3-(methoxymethyl)-1-[(2,3,3-trimethyl-1H-isoindol-5-yl)methyl]pyrazole-4-carboxamide]
16 | > 40 µM | > 40 µM | 0.01 to 0.03 µM | COCc1nn(Cc2ccc3c(c2)CN(C)CC3(C)C)cc1C(=O)NCc1c(-n2cc(C)nn2)ccc(OC)c1F [Example 134, N-{[2-fluoro-3-methoxy-6-(4-methyl-1,2,3-triazol-1-yl)phenyl]methyl}-3-(methoxymethyl)-1-[(2,4,4-trimethyl-1,3-dihydroisoquinolin-7-yl)methyl]pyrazole-4-carboxamide]
